Patent publication US20240343699A1, “DERIVATIVES OF SUBSTITUTED MORPHOLINES AND USES THEREOF” (Supernus Pharmaceuticals, Inc., priority 2023, published 2024)

Legend:
[1] = Stability in fluid matrices SGF, SIF and PBS; type: physicochemical; conditions: 37° C.
Method: Simulated Gastric Fluid (SGF) was prepared with 34.2 mM NaCl, 80 μM sodium taurocholate, 20 μM of L-alpha phosphatidylcholine/lecithin, and 0.1 mg/mL of Pepsin. 1 M HCl was added dropwise to adjust the pH to 1.96. Simulated Intestinal Fluid (SIF) was prepared with sodium phosphate monobasic, 105.9 mM NaCl, […] sodium taurocholate, and […] of L-alpha phosphatidylcholine/lecithin. 1 N NaOH was added dropwise to adjust the pH to 5.98. Phosphate buffered saline (PBS) at pH 6.0 was made by titrating PBS at pH 7.4 with 1 M HCl.
(§1) Stability of Test Articles at Different pH Values. 10 mM stock solutions of COMPOUND A were prepared in DMSO. From this stock solution, a single concentration in a 10 μL aliquot was added to three fluid matrices: SGF at pH 2.0 (gastric), SIF at pH 6.0 (upper intestine), and PBS at 7.4 (systemic). The final volume was 1 mL (0.1 mM). The preparations were then incubated at 37° C. and samples were collected at 0, 15, 30, 60, and 120 min for analysis of parent material by LC/MS/MS. The collected sample was quenched in acetonitrile/0.1% formic acid mixture. Red Blood Cell (RBC): Human and rat blood were centrifuged to separate out red blood cells at […] for 15 min. The upper plasma level was aspirated with a micropipette and placed in a bleach solution for disposal. The RBC pellet was resuspended in sterile isotonic saline. The pellet was gently resuspended by rocking the tube. The sample was then centrifuged again to collect the RBC pellet and then resuspended and washed one more time following the same procedure. A total of three was done. Following the last wash and centrifugation, the RBCs were resuspended with PBS; and mixed by inversion. Aliquots of the resuspended and washed RBCs were then placed into 4 reaction tubes. These tubes were centrifuged to collect the RBCs. The fluid level was marked on each tube, then the supernatant was aspirated off and the cells resuspended with room temperature PBS pH 7.4 to the original mark. An aliquot of the RBC suspension was added to four sterile tubes containing PBS pH 7.4 at room temperature.

recognition memory = experiment: Spontaneous novel object recognition (NOR), 48 hr retention interval; type: in vivo, male Wistar rats; conditions: 48 hr delay
[2] = Stability in human gut microbiota (fecal matter); type: in vitro ADME; conditions: pH 6 and 7.4, all time points
Method: Stability in Rat and Human Gut Microbiota. Rat fecal material was obtained and weighed. One capsule of the raw probiotics was crushed and weighed prior to use. The weighed samples were then solubilized in PBS at pH 6.0 and 7.4 to extract microorganisms. The samples were centrifuged at 18,000×g for 10 min to remove particulates and the supernatant was used to evaluate test article stability. An aliquot (50 μL) of the COMPOUND A stock solution was added to the fecal extract (final concentration 0.5 mM) and allowed to incubate at 37° C. Aliquots were collected at 0, 15, 30, 60, and 120 min and analyzed by LC/MS/MS to determine stability of the parent molecule. The collected sample was quenched in acetonitrile/0.1% formic acid mixture.

[3] = Stability in human whole blood, red blood cells and plasma (with/without protease inhibitors, pH 6.0); type: in vitro ADME
Method: as §1
(§2) Stability in Human and Rat Red Blood cells and Hemolysis. […] After centrifugation, 70 μL of supernatant (without disturbing the pellet) was transferred to a clean and clear polystyrene flat bottomed 96-well plate and the absorbance of the sample at a single wavelength was measured using a Bio Tech Synergy Hl Plate Reader at a wavelength of 410 nm. […] Stability was measured by measuring loss of parent compound using LC/MS/MS.

[4] = Stability in rat whole blood, red blood cells and plasma; type: in vitro ADME; conditions: 0.5 mM, 0-120 min
Method: Stability of Test Articles at Different pH Values. 10 mM stock solutions of COMPOUND A were prepared in DMSO. From this stock solution, a single concentration in a 10 μL aliquot was added to three fluid matrices: SGF at pH 2.0 (gastric), SIF at pH 6.0 (upper intestine), and PBS at 7.4 (systemic). The final volume was 1 mL (0.1 mM). The preparations were then incubated at 37° C. and samples were collected at 0, 15, 30, 60, and 120 min for analysis of parent material by LC/MS/MS. The collected sample was quenched in acetonitrile/0.1% formic acid mixture. Red Blood Cell (RBC): Human and rat blood were centrifuged to separate out red blood cells at […] for 15 min. The upper plasma level was aspirated with a micropipette and placed in a bleach solution for disposal. The RBC pellet was resuspended in sterile isotonic saline. The pellet was gently resuspended by rocking the tube. […]
as §2

prepulse inhibition = experiment: Prepulse inhibition (PPI) of the auditory startle response, apomorphine-impairment model
in vivo = conditions: beagle, dog, plasma, po, 80 mg/kg
[5] = COMPOUND C 60 mg/kg PO + apomorphine
[6] = COMPOUND C 90 mg/kg PO + apomorphine
[7] = COMPOUND C 120 mg/kg PO + apomorphine

CCOc1ccccc1OC[C@@H]1CN(C(=O)OC(C)OC(=O)[C@@H](N)C(C)C)CCO1 (some centres unmarked) [COMPOUND A]
stability in PBS (amount of parent compound) ([1]; PBS pH 7.4, 0.1 mM): time-dependent decrease in the amount of parent compound | stability in SGF (LC/MS/MS peak area of parent) ([1]; SGF pH 2.0, 0.1 mM, 0-120 min): time-dependent decrease in the LC/MS/MS peak area until 20 min | amount of parent compound in SIF ([1]; SIF pH 6.0, 0.1 mM, all time points): 100% | preference for the novel object (exploration times) (recognition memory; COMPOUND A 15 mg/kg p.o.): non-significant trend toward a preference for the novel object | preference for the novel object (exploration times) (recognition memory; COMPOUND A 30, 60, and 90 mg/kg p.o.): significant (p<0.05) preference for the novel object | d2 ratios vs vehicle-control (recognition memory; COMPOUND A 60 and 90 mg/kg p.o.): significant difference (p<0.05) from the vehicle-control response | amount of parent compound in human fecal matter [2]: ~100% | stability in human plasma at pH 6.0 ([3]; 0-30 min): slower degradation compared to the other matrices | stability in human plasma with protease inhibitor cocktail ([3]; 0-30 min): time-dependent decrease in the amount of parent compound present | stability in human red blood cells and whole blood ([3]; 0.5 mM, 0-120 min): time-dependent decrease in the amount of parent compound present | stability in rat red blood cells, plasma and whole blood [4]: time-dependent decrease in the amount of parent compound present

CCOc1ccccc1OC[C@@H]1CN(C(=O)OC(OC(=O)[C@H](N)C(C)C)C(C)C)CCO1 (some centres unmarked) [COMPOUND C]
% PPI (mean ± SEM) (prepulse inhibition; [5]): 43.6 ± 5.0% | Acoustic Startle (AU) (mean ± SEM) (prepulse inhibition; [5]): 1719.1 ± 211.2 AU | % PPI (mean ± SEM) (prepulse inhibition; [6]): 37.2 ± 5.6% | Acoustic Startle (AU) (mean ± SEM) (prepulse inhibition; [6]): 1579.9 ± 171.1 AU | % PPI (mean ± SEM) (prepulse inhibition; [7]): 43.7 ± 3.7% | Acoustic Startle (AU) (mean ± SEM) (prepulse inhibition; [7]): 1856.8 ± 245.8 AU | attenuation of the effects of apomorphine on PPI (prepulse inhibition; COMPOUND C 60, 90, 120 mg/kg PO): None of the doses of COMPOUND C were associated with a statistically significant attenuation | AUC(0-inf) (in vivo; female): 591 ng·h/mL | AUC(0-t) (in vivo; female): 572 ng·h/mL | Cmax (in vivo; female): 308 ng/mL | MRT inf (in vivo; female): 4.78 h | MRT last (in vivo; female): 3.16 h | Tmax (in vivo; female): 0.5 h | half-life (in vivo; female): 4.73 h | AUC(0-inf) (in vivo; male): 1200 ng·h/mL | AUC(0-t) (in vivo; male): 1190 ng·h/mL | Cmax (in vivo; male): 775 ng/mL | MRT inf (in vivo; male): 2.8 h | MRT last (in vivo; male): 2.58 h | Tmax (in vivo; male): 0.5 h | half-life (in vivo; male): 2.94 h
